Source: patent US8921563B2, “1-[(4-hydroxypiperidin-4-yl)methyl]pyridin-2(1H)-one derivatives, preparation methods and uses thereof” (Institue of Pharmacology and Toxicology Academy of Military …, priority 2010, dated 2014)

Columns and labels:
[1] = target: T1, 5-HT1A receptor (Rattus norvegicus, UniProt P19327); experiment: Screening: competitive binding test to 5-HT1A receptor using [3H]-8-OH-DPAT, rat hippocampi membrane protein; settings: [3H]-8-OH-DPAT 1.28 nM, read-out: Inhibition percent (I %), competitive binding to 5-HT1A receptor
T1 construct: the content of 5-HT1A receptor extracted from rat hippocampi was 5.5 mg/ml; from tissue; host or cells: Wistar rat hippocampus, membrane preparation
T1 sequence (P19327 1-422): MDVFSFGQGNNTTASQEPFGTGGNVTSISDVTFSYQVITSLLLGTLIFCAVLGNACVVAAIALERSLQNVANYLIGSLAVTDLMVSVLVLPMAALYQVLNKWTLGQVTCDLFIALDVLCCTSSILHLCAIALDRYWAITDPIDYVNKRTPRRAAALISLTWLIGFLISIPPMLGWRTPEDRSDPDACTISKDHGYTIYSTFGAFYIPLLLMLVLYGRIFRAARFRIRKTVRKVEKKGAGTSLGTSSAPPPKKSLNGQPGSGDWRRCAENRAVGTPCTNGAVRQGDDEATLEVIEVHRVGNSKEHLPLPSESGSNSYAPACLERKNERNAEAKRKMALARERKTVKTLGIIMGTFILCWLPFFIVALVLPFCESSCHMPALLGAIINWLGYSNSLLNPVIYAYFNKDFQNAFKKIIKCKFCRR
Protocol: 1.4.1 Screening of YL Series Compounds
(1) Preparation of Membrane Proteins in Rat Hippocampi
Wister rats, 220-260 g, female and male, were sacrificed by decapitation and hippocampis were rapidly separated, weighed and to which homogenized in 10 times volume of Tris-HCl buffer solution (50 mM Tris-HCl, 5 mM MgCl2,1 mM EDTA, 0.5% (WN) BSA, 1 mM PMSF, 3 μg/ml proteinase inhibitor, 0.1% NaN3, 0.32M sucrose, pH 7.4) at 15,000 rpm for 30 s, total 5 times. The homogenate was centrifuged under 1000×g for 10 minutes and the supernatant was then centrifuged under 39000×g for 10 minutes. The precipitate was collected, and resuspended with 10 times volume of Tris-HCl buffer solution (pH 7.4) relative to the original weight, then centrifuged under 39000×g for 10 minutes. The precipitate was washed with the same buffer solution, centrifuged under 39000×g for 10 minutes and the precipitate was suspended with the above buffer solution. After sub-packaged (the whole operation procedures were performed under ice bath), the product was stored at −80° C. The protein concentration was measured by Lowrry method.
1) In the 5-HT1A receptor binding test, tubes are firstly placed under reaction condition of 25° C.
2) To all of the tubes, the receptor proteins extracted from rat hippocampi in an amount of 100 μg were added in sequence.
4) To the test tubes, 30 μl of the compound in corresponding concentrations (used for screening: 10^−5, 10^−7, 10^−9M) was added in sequence.
6) Tris-HCl buffer solution (50 mM Tris-HCl, 1 mM EDTA, 5 mM MgCl2, 0.1 mM PMSF, 0.1% NaN3, pH 7.4) was supplied to all of the tubes to reach a volume of 300 μl.
7) The reaction was performed at 25° C. for 1 h.
8) Then samples were applied to 49-type glass fibre filter, vacuum suction filtered, then washed three times with 2 ml ice-cold Tris-HCl buffer solution (50 mM Tris-HCl buffer solution, 1 mM EDTA, 5 mM MgCl2, 1 mM PMSF, 0.1% NaN3, 3 μg/ml proteinase inhibitor, pH 7.4). […] The radio-activity was measured by a scintillation counter.

[2] = target: NET (Homo sapiens, UniProt P23975); experiment: Preliminary test of NET binding effect of YL-0911; settings: 10^-5 and 10^-7 mol/L; NET protein from HEK-293 cell line
Description: (4) Preliminary Test of NET Binding Effect of YL-0911 and Positive Control Drugs
Two different drug concentrations, 10^−5 and 10^−7 mol/L, were used to determine the binding effect of YL-0911 on NET protein extracted from the HEK-293 cell lines of stably expression NET.

[3] = tested on: mice; experiment: Hole board test in mice; format: in vivo; settings: long-term (23 days); for Number of Head dips / Time of head dipping: 5 min
Protocol: Hole board test, an animal model of anxiety established by Boissie, et al (1962), was performed in mice.
1) Experimental device: a transparent Perspex box (40×40×27 cm) which had four holes (3 cm in diameter, 1.8 cm in depth) in the floor. The distance of each hole center to its closest wall is 10 cm.
2) Experimental method: Male Kunming mice weighing 20-25 g. The mice were intragastrically administered with YL-0911 or vehicle (distilled water). After 23 days, the mice were placed at center of the hole board with their backs facing to the observer. A head dip was scored if the animal's head dipped into the hole at least up to eye level The latency to the first head-dip, the number of head-dips and the time spent in head-dipping were recorded for 5 min.

[4] = tested on: mice; experiment: Forced swim test in mice; format: in vivo; settings: acute, 1 h before test
Protocol: 2.1.1 Forced Swim Test in Mice
Forced swim test in mice is an acute behavioral despair model established by Porsolt, et al.
(1) Experimental device: a glass cylinder (diameter 13 cm, height 24 cm, containing 10 cm of water maintained at 25).
(2) Experimental method: Male Kunming mice weighing 20-25 g. The mice were gently put in the water 1 h after intragastrically drug administration, and then the duration of immobility in the last 4 min of total 6 min test was recorded.

[5] = target: SERT (Homo sapiens, UniProt P31645); experiment: Competitive binding test of YL-0911 and positive drugs to SERT (hSERT from transfected cell lines)
[6] = tested on: mice; experiment: Novel object recognition test in mice; format: in vivo; settings: repeated daily, tested day 8, mice
Protocol: Novel object recognition test is a cognitive behavior model established by Lima, et al.
1) Experimental device: a white Perspex box (60×60×16 cm), two completely identical objects, and one completely different object.
2) Experimental method: Male Kunming mice weighing 20-25 g. The mice were intragastrically administered with YL-0911 or vehicle (distilled water) for 5 days. On day 6, after treatment with YL-0911 or vehicle, each mouse was placed into the Perspex box at the same place for 5 min as habituation. On day 7, the mice were administered YL-0911 or vehicle and then individually placed in the Perspex box at the same place containing two identical objects located in the two diagonal corners for 5 minutes. On day 8, mice were tested for memory using the same procedure as day 7 except that one of the familiar objects was replaced with a novel object.

Sequence of SERT (P31645 whole entry): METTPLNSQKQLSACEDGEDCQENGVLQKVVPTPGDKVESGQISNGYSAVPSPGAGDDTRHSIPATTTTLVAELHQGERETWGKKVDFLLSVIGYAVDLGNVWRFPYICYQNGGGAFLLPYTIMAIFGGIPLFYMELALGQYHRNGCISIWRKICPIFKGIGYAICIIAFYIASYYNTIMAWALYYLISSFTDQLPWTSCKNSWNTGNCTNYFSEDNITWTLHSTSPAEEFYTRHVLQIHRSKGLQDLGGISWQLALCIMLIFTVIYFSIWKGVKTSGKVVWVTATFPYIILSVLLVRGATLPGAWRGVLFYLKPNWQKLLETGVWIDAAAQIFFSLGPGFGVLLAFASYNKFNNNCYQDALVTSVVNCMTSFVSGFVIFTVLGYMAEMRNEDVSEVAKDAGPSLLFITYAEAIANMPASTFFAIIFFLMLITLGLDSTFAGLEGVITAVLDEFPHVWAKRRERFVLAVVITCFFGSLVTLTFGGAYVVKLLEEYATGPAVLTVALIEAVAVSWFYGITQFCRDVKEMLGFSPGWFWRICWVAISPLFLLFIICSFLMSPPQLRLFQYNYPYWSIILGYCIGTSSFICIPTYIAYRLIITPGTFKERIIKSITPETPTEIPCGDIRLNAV
Sequence of NET (P23975 whole entry): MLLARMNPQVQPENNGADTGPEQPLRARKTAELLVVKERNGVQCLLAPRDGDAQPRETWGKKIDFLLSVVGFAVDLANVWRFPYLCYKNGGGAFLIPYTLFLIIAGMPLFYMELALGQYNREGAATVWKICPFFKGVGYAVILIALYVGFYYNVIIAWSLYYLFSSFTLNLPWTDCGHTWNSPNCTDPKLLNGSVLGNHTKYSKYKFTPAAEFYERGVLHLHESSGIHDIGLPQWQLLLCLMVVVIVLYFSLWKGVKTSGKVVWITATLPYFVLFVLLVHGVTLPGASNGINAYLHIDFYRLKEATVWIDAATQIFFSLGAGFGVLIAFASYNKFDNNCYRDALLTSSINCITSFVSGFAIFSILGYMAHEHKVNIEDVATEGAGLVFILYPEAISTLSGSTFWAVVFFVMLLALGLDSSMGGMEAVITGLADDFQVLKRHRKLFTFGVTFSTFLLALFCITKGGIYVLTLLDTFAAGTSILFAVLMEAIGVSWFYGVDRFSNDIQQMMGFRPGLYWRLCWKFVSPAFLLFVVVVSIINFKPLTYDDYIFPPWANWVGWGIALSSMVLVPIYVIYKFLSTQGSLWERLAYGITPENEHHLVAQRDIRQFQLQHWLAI

O=c1ccccn1CC1(O)CCN(Cc2ccccc2)CC1 [Compound 1, 1-[(1-benzyl-4-hydroxypiperidin-4-yl)-methyl]-pyridin-2(1H)-one]
inhibition at 10 µM ([1]; compound 10^-5 mol/L): 100%
inhibition at 0.1 µM ([1]; compound 10^-7 mol/L): 85%
affinity to NET (selectivity) [2]: obviously lower than the affinity to SERT and 5-HT1A
the latency to the first head-dip ([3]; 0.625 mg/kg p.o.): 62.60 ± 16.75 s
Number of Head dips ([3]; 0.625 mg/kg p.o.): 6.40 ± 0.97
Time of head dipping ([3]; 0.625 mg/kg p.o.): 3.75 ± 0.91 s
the latency to the first head-dip ([3]; 1.25 mg/kg p.o.): 33.00 ± 6.34 s
Number of Head dips ([3]; 1.25 mg/kg p.o.): 10.60 ± 1.17
Time of head dipping ([3]; 1.25 mg/kg p.o.): 6.86 ± 0.55 s
the latency to the first head-dip ([3]; 5 mg/kg p.o.): 31.60 ± 6.88 s
Number of Head dips ([3]; 5 mg/kg p.o.): 7.40 ± 1.00
Time of head dipping ([3]; 5 mg/kg p.o.): 5.95 ± 0.93 s
melting point: 216 to 218 °C
Immobility time (s), forced swim test ([4]; 0.625 mg/kg p.o.): 126.1 ± 60.9 s
Immobility time (s), forced swim test ([4]; 1.25 mg/kg p.o.): 72.0 ± 46.5 s
Immobility time (s), forced swim test ([4]; 5 mg/kg p.o.): 149.6 ± 39.1 s
Ki [5]: 5.38 ± 0.27 nM
Recognition index ([6]; 0.625 mg/kg p.o.): 59.95 ± 2.74
Recognition index ([6]; 1.25 mg/kg p.o.): 64.76 ± 5.02
